The values that follow come from US9409884B2 (Rigel Pharmaceuticals, Inc., priority 2012, dated 2016).

Each structure is given as a SMILES string. Some results are limits rather than exact numbers.

This experiment concerns the target AMPK. Briefly: AMPK activation, enzyme-linked immunosorbent assay. The note with it: Table 14, compounds of Table 7. It counts as biochemical. The method, boiled down: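 Read-out: ELISA, used to detect compound-driven activation of AMPK.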
What is called EC50 is the concentration needed to bring the measured effect to its halfway point. Read a low EC50 as an effect from little substance. Consider `COc1ccc(C(=O)C2CCN(C(=O)c3ccc(C(=O)NC4CCN(Cc5cccc(C#N)c5)C[C@@H]4F)cn3)CC2)cc1` (stereo partly drawn) [Compound 7-27, N-((3,4-trans)-1-(3-cyanobenzyl)-3-fluoropiperidin-4-yl)-6-(4-(4-methoxybenzoyl)piperidine-1-carbonyl)nicotinamide], for which the EC50 was under 1000 nM.
In the case of `COc1ccc(C(=O)C2CCN(C(=O)c3ccc(C(=O)NC4CCN(Cc5ccc(C(F)(F)F)cc5)C[C@@H]4F)cn3)CC2)cc1` (stereo partly drawn) [Compound 7-28, N-((3,4-trans)-3-fluoro-1-(4-(trifluoromethyl)benzyl)piperidin-4-yl)-6-(4-(4-methoxybenzoyl)piperidine-1-carbonyl)nicotinamide] it was under 1000 nM; in that of `COc1ccc(C(=O)C2CCN(C(=O)c3ccc(C(=O)NC4CCN(Cc5cccc(C#N)c5)C[C@H]4F)cn3)CC2)cc1` (stereo partly drawn) [Compound 7-29, N-((3,4-trans)-1-(3-cyanobenzyl)-3-fluoropiperidin-4-yl)-6-(4-(4-methoxybenzoyl)piperidine-1-carbonyl)nicotinamide], under 1000 nM.
To `COc1ccc(C(=O)C2CCN(C(=O)c3ccc(C(=O)NC4CCN(Cc5cccc(OC)c5)C[C@H]4F)cn3)CC2)cc1` (stereo partly drawn) [Compound 7-30, N-((3,4-trans)-3-fluoro-1-(3-methoxybenzyl)piperidin-4-yl)-6-(4-(4-methoxybenzoyl)piperidine-1-carbonyl)nicotinamide] belongs under 1000 nM; to `COc1ccc(C(=O)C2CCN(C(=O)c3ccc(C(=O)NC4CCN(Cc5cccc(C(F)(F)F)c5)C[C@H]4F)cn3)CC2)cc1` (stereo partly drawn) [Compound 7-32, N-((3,4-trans)-3-fluoro-1-(3-(trifluoromethyl)benzyl)piperidin-4-yl)-6-(4-(4-methoxybenzoyl)piperidine-1-carbonyl)nicotinamide], under 1000 nM; to `COc1ccc(C(=O)C2CCN(C(=O)c3ccc(C(=O)NC4CCN(Cc5ccc(OC(F)(F)F)cc5)C[C@H]4F)cn3)CC2)cc1` (stereo partly drawn) [Compound 7-33, (3,4-trans)-3-fluoro-4-(6-(4-(4-methoxybenzoyl)piperidine-1-carbonyl)nicotinamido)-1-(4-(trifluoromethoxy)benzyl) piperidinium], under 1000 nM.
To `COc1ccc(C(=O)C2CCN(C(=O)c3ccc(C(=O)NC4CCN(Cc5cccc(C(F)(F)F)c5)C[C@@H]4F)cn3)CC2)cc1` (stereo partly drawn) [Compound 7-34, N-((3,4-trans)-3-fluoro-1-(3-(trifluoromethyl)benzyl)piperidin-4-yl)-6-(4-(4-methoxybenzoyl)piperidine-1-carbonyl)nicotinamide] belongs under 1000 nM; to `COc1ccc(C(=O)C2CCN(C(=O)c3ccc(C(=O)NC4CCN(Cc5ccc(F)c(C)c5)C[C@H]4F)cn3)CC2)cc1` (stereo partly drawn) [Compound 7-37, N-((3,4-trans)-3-fluoro-1-(4-fluoro-3-methylbenzyl)piperidin-4-yl)-6-(4-(4-methoxybenzoyl)piperidine-1-carbonyl)nicotinamide], under 1000 nM.
`Cn1cnc2cc(OC3CCN(C(=O)c4ccc(C(=O)NC5CCN(Cc6ccc(C#N)cc6)CC5)cn4)CC3)ccc21` [Compound 7-38, N-(1-(4-cyanobenzyl)piperidin-4-yl)-6-(4-(1-methyl-1H-benzo[d]imidazol-5-yloxy)piperidine-1-carbonyl)nicotinamide]: the EC50 was 1000 to 10000 nM.
In the case of `COc1ccc(CN2CCC(NC(=O)c3ccc(C(=O)N4CCC(Oc5ccc6c(c5)ncn6C)CC4)nc3)CC2)cc1` [Compound 7-40, N-(1-(4-methoxybenzyl)piperidin-4-yl)-6-(4-(1-methyl-1H-benzo[d]imidazol-5-yloxy)piperidine-1-carbonyl)nicotinamide] it was 1000 to 10000 nM; in that of `COc1ccc(C(=O)C2CCN(C(=O)c3ccc(C(=O)NC4CCN(Cc5ccc(-n6cccn6)cc5)C[C@H]4F)cn3)CC2)cc1` (stereo partly drawn) [Compound 7-41, N-((3,4-trans)-1-(4-(1H-pyrazol-1-yl)benzyl)-3-fluoropiperidin-4-yl)-6-(4-(4-methoxybenzoyl)piperidine-1-carbonyl)nicotinamide], under 1000 nM; in that of `COc1ccc(C(=O)C2CCN(C(=O)c3ccc(C(=O)NC4CCN(Cc5ccc(-n6ccnc6)cc5)C[C@H]4F)cn3)CC2)cc1` (stereo partly drawn) [Compound 7-42, N-((3,4-trans)-1-(4-(1H-imidazol-1-yl)benzyl)-3-fluoropiperidin-4-yl)-6-(4-(4-methoxybenzoyl)piperidine-1-carbonyl)nicotinamide], 1000 to 10000 nM.
`COc1ccc(C(=O)C2CCN(C(=O)c3ccc(C(=O)NC4CCN(Cc5ccc(F)c(OC)c5)C[C@H]4F)cn3)CC2)cc1` (stereo partly drawn) [Compound 7-43, N-((3,4-trans)-3-fluoro-1-(4-fluoro-3-methoxybenzyl)piperidin-4-yl)-6-(4-(4-methoxybenzoyl)piperidine-1-carbonyl)nicotinamide] returned an EC50 of under 1000 nM.
In the case of `COc1ccc(C(=O)C2CCN(C(=O)c3ccc(C(=O)NC4CCN(Cc5ccc(OC)c(F)c5)C[C@H]4F)cn3)CC2)cc1` (stereo partly drawn) [Compound 7-44, N-((3,4-trans)-3-fluoro-1-(3-fluoro-4-methoxybenzyl)piperidin-4-yl)-6-(4-(4-methoxybenzoyl)piperidine-1-carbonyl)nicotinamide] it was under 1000 nM; in that of `COc1ccc(C(=O)C2CCN(C(=O)c3ccc(C(=O)NC4CCN(Cc5ccc(F)c(C(F)(F)F)c5)C[C@H]4F)cn3)CC2)cc1` (stereo partly drawn) [Compound 7-45, N-((3,4-trans)-3-fluoro-1-(4-fluoro-3-(trifluoromethyl)benzyl)piperidin-4-yl)-6-(4-(4-methoxybenzoyl)piperidine-1-carbonyl)nicotinamide], under 1000 nM; in that of `CC(=O)c1ccc(Oc2ccc(NC(=O)c3ccc(C(=O)N4CCC(Oc5ccc6c(c5)ncn6C)CC4)nc3)cn2)cc1` [Compound 7-46, N-(6-(4-acetylphenoxy)pyridin-3-yl)-6-(4-(1-methyl-1H-benzo[d]imidazol-5-yloxy)piperidine-1-carbonyl)nicotinamide], 1000 to 10000 nM.
To `Cc1cc(OC2CCN(C(=O)c3ccc(C(=O)NC4CCN(Cc5ccc(OC(F)(F)F)cc5)C[C@H]4F)cn3)CC2)ccc1S(C)(=O)=O` (stereo partly drawn) [Compound 7-47, N-((3,4-trans)-3-fluoro-1-(4-(trifluoromethoxy)benzyl)piperidin-4-yl)-6-(4-(3-methyl-4-(methylsulfonyl)phenoxy)piperidine-1-carbonyl) nicotinamide] belongs under 1000 nM.
Turning to `O=C(NC1CCN(Cc2ccc(OC(F)(F)F)cc2)C[C@H]1F)c1ccc(C(=O)N2CCC(Oc3ccc(S(=O)(=O)C4CC4)cc3)CC2)nc1` (stereo partly drawn) [Compound 7-48, 6-(4-(4-(cyclopropylsulfonyl)phenoxy)piperidine-1-carbonyl)-N-((3,4- trans)-3-fluoro-1-(4-(trifluoromethoxy)benzyl)piperidin-4-yl)nicotinamide], the EC50 lay within 1000 to 10000 nM.
In the case of `CS(=O)(=O)c1ccc(OC2CCN(C(=O)c3ccc(C(=O)NC4CCN(Cc5ccc(OC(F)(F)F)cc5)C[C@H]4F)cn3)CC2)cc1` (stereo partly drawn) [Compound 7-49, N-((3,4-trans)-3-fluoro-1-(4-(trifluoromethoxy)benzyl)piperidin-4-yl)-6-(4-(4-(methylsulfonyl)phenoxy)piperidine-1-carbonyl) nicotmamide] it was 1000 to 10000 nM; in that of `Cc1nc2cc(OC3CCN(C(=O)c4ccc(C(=O)NC5CCN(Cc6ccc(OC(F)(F)F)cc6)C[C@H]5F)cn4)CC3)ccc2s1` (stereo partly drawn) [Compound 7-51, N-((3,4-trans)-3-fluoro-1-(4-(trifluoromethoxy)benzyl)piperidin-4-yl)-6-(4-(2-methylbenzo[d]thiazol-5-yloxy)piperidine-1-carbonyl)nicotinamide], under 1000 nM; in that of `CC(=O)c1ccc(OC2CCN(C(=O)c3ccc(C(=O)NC4CCN(Cc5ccc(OC(F)(F)F)cc5)C[C@H]4F)cn3)CC2)cc1` (stereo partly drawn) [Compound 7-52, 6-(4-(4-acetylphenoxy)piperidine-1-carbonyl)-N-((3,4-trans)-3-fluoro-1-(4-(trifluoromethoxy)benzyl)piperidin-4-yl)nicotinamide], under 1000 nM.
In the case of `O=C(NC1CCN(Cc2ccc(OC(F)(F)F)cc2)C[C@H]1F)c1ccc(C(=O)N2CCC(C(=O)c3ccc(N4CCOCC4)cc3)CC2)nc1` (stereo partly drawn) [Compound 7-53, N-((3,4-trans)-3-fluoro-1-(4-(trifluoromethoxy)benzyl)piperidin-4-yl)-6-(4-(4-morpholinobenzoyl)piperidine-1-carbonyl)nicotinamide] it was under 1000 nM.
To `COc1ccc(C(=O)C2CCN(C(=O)c3ccc(C(=O)NC4CCN(Cc5ccc(OC)c(C#N)c5)C[C@H]4F)cn3)CC2)cc1` (stereo partly drawn) [Compound 7-55, N-((3,4-trans)-1-(3-cyano-4-methoxybenzyl)-3-fluoropiperidin-4-yl)-6-(4-(4-methoxybenzoyl)piperidine-1-carbonyl)nicotinamide] belongs 1000 to 10000 nM; to `COc1ccc(C(=O)C2CCN(C(=O)c3ccc(C(=O)NC4CCN(Cc5ccc(C#N)cc5C)C[C@H]4F)cn3)CC2)cc1` (stereo partly drawn) [Compound 7-56, N-((3,4-trans)-1-(4-cyano-2-methylbenzyl)-3-fluoropiperidin-4-yl)-6-(4-(4-methoxybenzoyl)piperidine-1-carbonyl)nicotinamide], 1000 to 10000 nM.
`O=C(NC1CCN(Cc2ccc(OC(F)(F)F)cc2)C[C@H]1F)c1ccc(C(=O)N2CCC(C(=O)c3ccc(N4CCCC4)cc3)CC2)nc1` (stereo partly drawn) [Compound 7-57, N-((3,4-trans)-3-fluoro-1-(4-(trifluoromethoxy)benzyl)piperidin-4-yl)-6-(4-(4-(pyrrolidin-1-yl)benzoyl)piperidine-1-carbonyl) nicotinamide] returned an EC50 of under 1000 nM.
In the case of `COc1ccc(C(=O)C2CCN(C(=O)c3ccc(C(=O)NC4CCN(Cc5ccc(C)c(C#N)c5)C[C@H]4F)cn3)CC2)cc1` (stereo partly drawn) [Compound 7-58, N-((3,4-trans)-1-(3-cyano-4-methylbenzyl)-3-fluoropiperidin-4-yl)-6-(4-(4-methoxybenzoyl)piperidine-1-carbonyl)nicotinamide] it was under 1000 nM.
In the case of `COc1ccc(C(=O)C2CCN(C(=O)c3ccc(C(=O)NC4CCN(Cc5ccc(C#N)c(C)c5)C[C@H]4F)cn3)CC2)cc1` (stereo partly drawn) [Compound 7-59, N-((3,4-trans)-1-(4-cyano-3-methylbenzyl)-3-fluoropiperidin-4-yl)-6-(4-(4-methoxybenzoyl)piperidine-1-carbonyl)nicotinamide] it was under 1000 nM.
